Structures can show the parent of a compound that is named as a salt. Where two headings read alike, the source gives them in different places.
Experiments:
human BACE1(1-460):Fc = human BACE1(1-460):Fc (Homo sapiens (Human), UniProt P56817); assay: BACE1 FRET Assay; assay type: biochemical; conditions: purified recombinant huBACE1:Fc, FRET substrate, pH 4.6; Mean ± SEM
Description: (§1) For in vitro enzymatic and cellular assays, test compounds are prepared in DMSO to make up a 10 mM stock solution. The stock solution is serially diluted in DMSO to obtain a ten-point dilution curve with final compound concentrations ranging from […] to 0.05 nM in a 96-well round-bottom plate before conducting the in vitro enzymatic and whole cell assays.
Human BACE1 (accession number: AF190725) is cloned from total brain cDNA by RT-PCR. The nucleotide sequences corresponding to amino acid sequences #1 to 460 are inserted into the cDNA encoding human IgG1 (Fc) polypeptide (Vassar et al. 1999). This fusion protein of BACE1(1-460) and human Fc, named huBACE1:Fc, is constructed into the pJB02 vector. Human BACE1(1-460):Fc (huBACE1:Fc) is transiently expressed in HEK293 cells. 250 μg cDNA of each construct is mixed with Fugene 6 and added to 1 liter HEK293 cells. Four days after the transfection, conditioned media are harvested for purification.
huBACE1:Fc is purified by Protein A chromatography. The enzyme is stored at −80° C. in small aliquots.
Serial dilutions of test compounds are prepared as described above. Compounds are further diluted 20× in KH2PO4 buffer. […] The content is mixed well on a plate shaker for 10 minutes. Fifteen μL of two hundred pM human BACE1(1-460):Fc (See Vasser, et al., Science, 286, 735-741 (1999)) in the KH2PO4 buffer is added to the plate containing substrate and test compounds to initiate the reaction. The RFU of the mixture at time 0 is recorded at excitation wavelength 355 nm and emission wavelength 460 nm, after brief mixing on a plate shaker. The reaction plate is covered with aluminum foil and kept in a dark humidified oven at room temperature for 16 to 24 h. The RFU at the end of incubation is recorded with the same excitation and emission settings used at time 0. The difference of the RFU at time 0 and the end of incubation is representative of the activity of BACE1 under the compound treatment. RFU differences are plotted versus inhibitor concentration and a curve is fitted with a four-parameter logistic equation to obtain the EC50 and IC50 values. (See Sinha, et al., Nature, 402, 537-540 […]).

HEK293Swe cells = assay: HEK293Swe Whole Cell Assay (Abeta ELISA); assay type: cell-based; conditions: Homo sapiens
Description: as §1
In vitro Abeta reduction assays have been described in the literature (See Dovey, et al., Journal of Neurochemistry, 76, 173-181 (2001); Seubert, et al., Nature, 361, 260 (1993); and Johnson-Wood, et al., Proc. Natl. Acad. Sci. USA, 94, 1550-1555 (1997)).
At the end of the incubation, conditioned media are analyzed for evidence of beta-secretase activity, for example, by analysis of Abeta peptides. Total Abeta peptides (Abeta 1-x) are measured by a sandwich ELISA, using monoclonal 266 as a capture antibody and biotinylated 3D6 as reporting antibody. Alternatively, Abeta 1-40 and Abeta 1-42 peptides are measured by a sandwich ELISA, using monoclonal 2G3 as a capture antibody for Abeta 1-40, and monoclonal 21F12 as a capture antibody for Abeta 1-42. Both Abeta 1-40 and Abeta 1-42 ELISAs use biotinylated 3D6 as the reporting antibody. The concentration of Abeta released in the conditioned media following the compound treatment corresponds to the activity of BACE1 under such conditions. The 10-point inhibition curve is plotted and fitted with the four-parameter logistic equation to obtain the EC50 and IC50 values for the Abeta-lowering effect.

[1] = system: primary cortical neurons from PDAPP transgenic embryonic mice; assay: PDAPP Primary Neuronal Assay (Abeta ELISA); assay type: cell-based; conditions: Mus musculus, Primary cortical neuron, 24 h
Description: as §1
A confirmatory whole cell assay is also run in primary neuronal cultures generated from PDAPP transgenic embryonic mice. Primary cortical neurons are prepared from Embryonic Day 16 PDAPP embryos and cultured in 96 well plates (15×10^4 cells/well in DMEM/F12 (1:1) plus 10% FBS). After 2 days in vitro, culture media is replaced with serum free DMEM/F12 (1:1) containing B27 supplement and 2 μM (final) of Ara-C (Sigma, C1768). At day 5 in vitro, neurons are incubated at 37° C. for 24 h in the presence/absence of inhibitors (diluted in DMSO) at the desired concentration. At the end of the incubation, conditioned media are analyzed for evidence of beta-secretase activity, for example, by analysis of Abeta peptides. Total Abeta peptides (Abeta 1-x) are measured by a sandwich ELISA, using monoclonal 266 as a capture antibody and biotinylated 3D6 as reporting antibody. Alternatively, Abeta 1-40 and Abeta 1-42 peptides are measured by a sandwich ELISA, using monoclonal 2G3 as a capture antibody for Abeta 1-40, and monoclonal 21F12 as a capture antibody for Abeta 1-42. Both Abeta 1-40 and Abeta 1-42 ELISAs use biotinylated 3D6 as the reporting antibody. The concentration of Abeta released in the conditioned media following the compound treatment corresponds to the activity of BACE1 under such conditions. The 10-point inhibition curve is plotted and fitted with the four-parameter logistic equation to obtain the EC50 and IC50 values for the Abeta-lowering effect.

PDAPP mice = assay: In Vivo Inhibition of Beta-Secretase (brain Abeta 1-x reduction); set-up: species or system mouse; conditions: for Abeta 1-x peptide levels reduced in brain cortex / Abeta 1-x peptide levels reduced in brain hippocampus: 3 hours after administration, compared to vehicle-treated mice
Description: Several animal models, including mouse, guinea pig, dog, and monkey, may be used to screen for inhibition of beta-secretase activity in vivo following compound treatment. Animals used in this invention can be wild type, transgenic, or gene knockout animals. For example, the PDAPP mouse model, prepared as described in Games et al., Nature 373, 523-527 (1995), and other non-transgenic or gene knockout animals are useful to analyze in vivo inhibition of Abeta and sAPPbeta production in the presence of inhibitory compounds. Generally, 2 to 12 month old PDAPP mice, gene knockout mice or non-transgenic animals are administered compound formulated in vehicles, such as corn oil, cyclodextran, phosphate buffers, PHARMASOLVE®, or other suitable vehicles. One to twenty-four hours following the administration of compound, animals are sacrificed, and brains as well as cerebrospinal fluid and plasma are removed for analysis of Abetas, C99, and sAPP fragments. (See May, et al., Journal of Neuroscience, 31, 16507-16516 (2011)).
For standard in vivo pharmacology studies, animals are dosed with various concentrations of compound and compared to a vehicle-treated control group dosed at the same time. For some time course studies, brain tissue, plasma, or cerebrospinal fluid is obtained from selected animals, beginning at time 0 to establish a baseline. Compound or appropriate vehicle is administered to other groups and sacrificed at various times after dosing. Brain tissue, plasma, or cerebrospinal fluid is obtained from selected animals and analyzed for the presence of APP cleavage products, including Abeta peptides, sAPPbeta, and other APP fragments, for example, by specific sandwich ELISA assays. At the end of the test period, animals are sacrificed and brain tissues, plasma, or cerebrospinal fluid are analyzed for the presence of Abeta peptides, C99, and sAPPbeta, as appropriate. Brain tissues of APP transgenic animals may also be analyzed for the amount of beta-amyloid plaques following compound treatment. “Abeta 1-x peptide” as used herein refers to the sum of Abeta species that begin with residue 1 and ending with a C-terminus greater than residue 28. This detects the majority of Abeta species and is often called “total Abeta”.

[2] = HEK293, Abeta 1-40 in conditioned media, read-out: HEK 293 Swe A-beta (1-40) ELISA IC50
[3] = HEK293, Abeta 1-42 in conditioned media, read-out: HEK 293 Swe A-beta (1-42) ELISA IC50
[4] = Abeta 1-40, Mean ± SEM, read-out: PDAPP Neuron A-beta (1-40) ELISA IC50
[5] = Abeta 1-42, Mean ± SEM, read-out: PDAPP Neuron A-beta (1-42) ELISA IC50

Chain of human BACE1(1-460):Fc (P56817 22-460): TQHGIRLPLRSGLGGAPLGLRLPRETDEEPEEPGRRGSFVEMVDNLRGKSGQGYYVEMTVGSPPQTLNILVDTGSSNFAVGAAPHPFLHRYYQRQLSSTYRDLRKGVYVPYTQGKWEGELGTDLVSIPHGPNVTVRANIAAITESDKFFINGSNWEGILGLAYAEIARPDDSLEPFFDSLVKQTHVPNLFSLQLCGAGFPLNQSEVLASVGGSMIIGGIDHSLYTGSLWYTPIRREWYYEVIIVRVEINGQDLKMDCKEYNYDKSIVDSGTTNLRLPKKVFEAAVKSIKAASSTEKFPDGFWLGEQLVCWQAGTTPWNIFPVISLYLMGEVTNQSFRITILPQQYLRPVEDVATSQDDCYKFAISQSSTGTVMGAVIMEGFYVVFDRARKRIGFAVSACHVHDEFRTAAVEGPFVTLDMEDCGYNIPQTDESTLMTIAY

Row | Compound | IC50 (human BACE1(1-460):Fc) [nM] | IC50 (HEK293Swe cells; [2]) [nM] | IC50 (HEK293Swe cells; [3]) [nM] | IC50 [1, 4] [nM] | IC50 [1, 5] [nM] | CNS penetration (PDAPP mice) | Abeta 1-x peptide levels reduced in brain cortex (PDAPP mice; 1 mg/kg oral dose) | Abeta 1-x peptide levels reduced in brain hippocampus (PDAPP mice; 1 mg/kg oral dose) | Abeta 1-x peptide levels reduced in brain cortex (PDAPP mice; 3 mg/kg oral dose) [%] | Abeta 1-x peptide levels reduced in brain hippocampus (PDAPP mice; 3 mg/kg oral dose) [%] | Abeta 1-x peptide levels reduced in brain cortex (PDAPP mice; 10 mg/kg oral dose) [%] | Abeta 1-x peptide levels reduced in brain hippocampus (PDAPP mice; 10 mg/kg oral dose) [%]
1 | Cl.NC1=N[C@@]2(c3cccc(NC(=O)c4ccc(F)cn4)c3)CN(c3ncc(F)cn3)C[C@H]2CS1 [Example 1, N-{3-[(4aR,7aS)-2-Amino-6-(5-fluoropyrimidin-2-yl)-4a,5,6,7-tetrahydropyrrolo[3,4-d][1,3]thiazin-7a(4H)-yl]phenyl}-5-fluoropyridine-2-carboxamide hydrochloride] | 0.61 | 0.619 | 0.437 | 0.487 | 0.591 | demonstrate CNS penetration | approximately 43% | approximately 34% | ~59 | ~48 | ~66 | ~53
2 | COc1cnc(C(=O)Nc2cccc([C@]34CN(c5ncc(F)cn5)C[C@H]3CSC(N)=N4)c2)cn1 [Example 2, N-{3-[(4aR,7aS)-2-Amino-6-(5-fluoropyrimidin-2-yl)-4a,5,6,7-tetrahydropyrrolo[3,4-d][1,3]thiazin-7a(4H)-yl]phenyl}-5-methoxypyrazine-2-carboxamide hydrochloride] | 0.482 | 0.324 | 0.289 | 0.244 | 1.22 |  |  |  |  |  |  | 
3 | Cl.NC1=N[C@@]2(c3cc(NC(=O)c4ccc(F)cn4)ccc3F)CN(c3ncc(F)cn3)C[C@H]2CS1 [Example 3, N-[3-[(4aR,7aS)-2-Amino-6-(5-fluoropyrimidin-2-yl)-4,4a,5,7-tetrahydropyrrolo[3,4-d][1,3]thiazin-7a-yl]-4-fluoro-phenyl]-5-fluoro-pyridine-2-carboxamide hydrochloride] |  | 1.26 | 0.299 | 0.309 | 0.184 | demonstrate CNS penetration | approximately 34% | approximately 38% | ~53 | ~50 |  | 
4 | COc1cnc(C(=O)Nc2ccc(F)c([C@]34CN(c5ncc(F)cn5)C[C@H]3CSC(N)=N4)c2)cn1 [Example 4, N-[3-[(4aR,7aS)-2-Amino-6-(5-fluoropyrimidin-2-yl)-4,4a,5,7-tetrahydropyrrolo[3,4-d][1,3]thiazin-7a-yl]-4-fluoro-phenyl]-5-methoxy-pyrazine-2-carboxamide hydrochloride] |  |  |  | 0.134 | 0.131 |  |  |  |  |  |  | 
5 | N#Cc1ccc(C(=O)Nc2cccc([C@]34CN(c5ncc(F)cn5)C[C@H]3CSC(N)=N4)c2)nc1 [Example 5, N-[3-[(4aR,7aS)-2-Amino-6-(5-fluoropyrimidin-2-yl)-4,4a,5,7-tetrahydropyrrolo[3,4-d][1,3]thiazin-7a-yl]phenyl]-5-cyano-pyridine-2-carboxamide hydrochloride] | 0.45 | 0.0887 | 0.0785 | 0.132 | 0.0813 |  |  |  |  |  |  | 
6 | NC1=N[C@@]2(c3cccc(NC(=O)c4ncc(F)cc4F)c3)CN(c3ncc(F)cn3)C[C@H]2CS1 [Example 6, N-[3-[(4aR,7aS)-2-Amino-6-(5-fluoropyrimidin-2-yl)-4,4a,5,7-tetrahydropyrrolo[3,4-d][1,3]thiazin-7a-yl]phenyl]-3,5-difluoro-pyridine-2-carboxamide hydrochloride] | 0.739 | 0.22 | 0.211 | 0.279 | 0.308 |  |  |  |  |  |  | 
7 | N#Cc1ccc(C(=O)Nc2ccc(F)c([C@]34CN(c5ncc(F)cn5)C[C@H]3CSC(N)=N4)c2)nc1 [Example 7, N-[3-[(4aR,7aS)-2-Amino-6-(5-fluoropyrimidin-2-yl)-4,4a,5,7-tetrahydropyrrolo[3,4-d][1,3]thiazin-7a-yl]-4-fluoro-phenyl]-5-cyano-pyridine-2-carboxamide hydrochloride] | 0.358 |  |  | 0.0873 | 0.0649 |  |  |  |  |  |  | 
8 | NC1=N[C@@]2(c3cc(NC(=O)c4ncc(F)cc4F)ccc3F)CN(c3ncc(F)cn3)C[C@H]2CS1 [Example 8, N-[3-[(4aR,7aS)-2-Amino-6-(5-fluoropyrimidin-2-yl)-4,4a,5,7-tetrahydropyrrolo[3,4-d][1,3]thiazin-7a-yl]-4-fluoro-phenyl]-3,5-difluoro-pyridine-2-carboxamide hydrochloride] |  |  |  | 0.285 | 0.29 |  |  |  |  |  |  | 
